Laboratory results from patent publication US12708630B2, “Combined therapy of 4′-thio-5-aza-2′-deoxycytidine and Venetoclax” (PINOTBIO, INC., priority 2021, dated 2026).
pIC50: −log10 of the molar value.

How the values were obtained:
Assay in all cases: drug activity profiling cytotoxicity
Type in all cases: cell-based
SK-UT-1 = conditions: Homo sapiens; SK-UT-1 cell line, Sarcoma; read-out: Aza-T-dCyd IC50
Protocol: (§1) To obtain a biomarker for Aza-T-dCyd, drug activity profiling analysis was performed to evaluate the cytotoxicity of 200 cell lines.
(§2) The drug responsiveness analysis of Aza-T-dCyd through drug activity profiling and genomic analysis of 200 cell lines confirmed the potent efficacy of Aza-T-dCyd in various solid tumors (Table 2).

PA-1 = conditions: Homo sapiens; PA-1 cell line, Female GU (Ovary); read-out: Aza-T-dCyd IC50
Protocol: as §1, §2

JeKo-1 = conditions: Homo sapiens; JeKo-1 cell line, B-cell lymphoma; read-out: Aza-T-dCyd IC50
Protocol: as §1, §2

647-V = conditions: Homo sapiens; 647-V cell line, Bladder; read-out: Aza-T-dCyd IC50
Protocol: as §1, §2

GA-10 = conditions: Homo sapiens; GA-10 cell line, Burkitt's lymphoma; read-out: Aza-T-dCyd IC50
Protocol: as §1, §2

CGTH-W-1 = conditions: Homo sapiens; CGTH-W-1 cell line, Endocrine (Thyroid); read-out: Aza-T-dCyd IC50
Protocol: as §1, §2

BxPC-3 = conditions: Homo sapiens; BxPC-3 cell line, Pancreas; read-out: Aza-T-dCyd IC50
Protocol: as §1, §2

HeLa = conditions: Homo sapiens; HeLa cell line, Female GU (Cervix); read-out: Aza-T-dCyd IC50
Protocol: as §1, §2

Daoy = conditions: Homo sapiens; Daoy cell line, CNS (Medulloblastoma); read-out: Aza-T-dCyd IC50
Protocol: as §1, §2

A204 = conditions: Homo sapiens; A204 cell line, Sarcoma; read-out: Aza-T-dCyd IC50
Protocol: as §1, §2

DBTRG-05MG = conditions: Homo sapiens; DBTRG-05MG cell line, CNS (Glioma); read-out: Aza-T-dCyd IC50
Protocol: as §1, §2

SW837 = conditions: Homo sapiens; SW837 cell line, Colon; read-out: Aza-T-dCyd IC50
Protocol: as §1, §2

SU-DHL-8 = conditions: Homo sapiens; SU-DHL-8 cell line, B-cell lymphoma; read-out: Aza-T-dCyd IC50
Protocol: as §1, §2

NCIH446 = conditions: Homo sapiens, NCI-H446; NCIH446 cell line, Lung (SCLC); read-out: Aza-T-dCyd IC50
Protocol: as §1, §2

Cal 27 = conditions: Homo sapiens; Cal 27 cell line, Head and Neck; read-out: Aza-T-dCyd IC50
Protocol: as §1, §2

MDA MB 468 = conditions: Homo sapiens; MDA MB 468 cell line, Breast; read-out: Aza-T-dCyd IC50
Protocol: as §1, §2

A498 = conditions: Homo sapiens; A498 cell line, Kidney; read-out: Aza-T-dCyd IC50
Protocol: as §1, §2

CCRFCEM = conditions: Homo sapiens, CCRF-CEM; CCRFCEM cell line, ALL; read-out: Aza-T-dCyd IC50
Protocol: as §1, §2

OVCAR3 = conditions: Homo sapiens, OVCAR-3; OVCAR3 cell line, Female GU (Ovary); read-out: Aza-T-dCyd IC50
Protocol: as §1, §2

NCI-H747 = conditions: Homo sapiens; NCI-H747 cell line, Colon; read-out: Aza-T-dCyd IC50
Protocol: as §1, §2

Hs 578T = conditions: Homo sapiens; Hs 578T cell line, Breast; read-out: Aza-T-dCyd IC50
Protocol: as §1, §2

DB = conditions: Homo sapiens; DB cell line, B-cell lymphoma; read-out: Aza-T-dCyd IC50
Protocol: as §1, §2

A431 = conditions: Homo sapiens, A-431; A431 cell line, Skin (Head and Neck); read-out: Aza-T-dCyd IC50
Protocol: as §1, §2

A388 = A388 cell line, Skin (Head and Neck); read-out: Aza-T-dCyd IC50
Protocol: as §1, §2

PFSK-1 = conditions: Homo sapiens; PFSK-1 cell line, CNS (Glioma); read-out: Aza-T-dCyd IC50
Protocol: as §1, §2

VA-ES-BJ = VA-ES-BJ cell line, Sarcoma; read-out: Aza-T-dCyd IC50
Protocol: as §1, §2

RPMI-7951 = conditions: Homo sapiens; RPMI-7951 cell line, Skin (Melanoma); read-out: Aza-T-dCyd IC50
Protocol: as §1, §2

A-253 = conditions: Homo sapiens, A253; A-253 cell line, Head and Neck; read-out: Aza-T-dCyd IC50
Protocol: as §1, §2

Capan-1 = conditions: Homo sapiens; Capan-1 cell line, Pancreas; read-out: Aza-T-dCyd IC50
Protocol: as §1, §2

LS411N = conditions: Homo sapiens, LS-411N; LS411N cell line, Colon; read-out: Aza-T-dCyd IC50
Protocol: as §1, §2

Nc1ncn([C@H]2CC(O)[C@@H](CO)S2)c(=O)n1 (stereo partly drawn) [Aza-T-dCyd, 4′-thio-5-aza-2′-deoxycytidine]
pIC50 (SK-UT-1): 6.46 | pIC50 (PA-1): 7.41 | pIC50 (JeKo-1): 7.41 | pIC50 (647-V): 6.39 | pIC50 (GA-10): 7.47 | pIC50 (CGTH-W-1): 6.84 | pIC50 (BxPC-3): 6.16 | pIC50 (HeLa): 5.74 | pIC50 (Daoy): 5.44 | pIC50 (A204): 6.80 | pIC50 (DBTRG-05MG): < 5.00 | pIC50 (SW837): 6.45 | pIC50 (SU-DHL-8): 7.15 | pIC50 (NCIH446): 5.52 | pIC50 (Cal 27): 6.50 | pIC50 (MDA MB 468): 5.87 | pIC50 (A498): 7.13 | pIC50 (CCRFCEM): 6.92 | pIC50 (OVCAR3): 5.46 | pIC50 (NCI-H747): 6.50 | pIC50 (Hs 578T): < 5.00 | pIC50 (DB): 6.87 | pIC50 (A431): 6.59 | pIC50 (A388): 6.72 | pIC50 (PFSK-1): 5.12 | pIC50 (VA-ES-BJ): 6.62 | pIC50 (RPMI-7951): 6.28 | pIC50 (A-253): 6.22 | pIC50 (Capan-1): 5.48 | pIC50 (LS411N): 6.58
